From US11931338B2, “Nitrilated psilocybin derivatives and methods of using” (Enveric Biosciences Canada Inc., priority 2020, dated 2024)

Tests used:
5-HT2A receptor = molecular target: T1, 5-HT2A receptor (Homo sapiens, UniProt P28223); assay: [3H]ketanserin competition binding assay (Scintillation Proximity Assay) with membranes containing 5-HT2A; conditions: fixed (1 nM) [3H]ketanserin; FIG. 13C, 13D
T1 construct: purchased PerkinElmer ES-313-M400UA
Excerpt: Evaluation of drug binding is an essential step to characterization of all drug-target interactions (Fang 2012, Exp Opin Drug Discov 7:969). The binding affinity of a drug to a target is traditionally viewed as an acceptable surrogate of its in vivo efficacy (Núñez et al., 2012, Drug Disc Today 17: 10). Competition assays, also called displacement or modulation binding assays, are a common approach to measure activity of a ligand at a target receptor (Flanagan 2016, Methods Cell Biol 132: 191). In these assays, standard radioligands acting either as agonists or antagonists are ascribed to specific receptors. […] After incubation, the samples were read on a MicroBeta 2 Microplate Counter (Perkin Elmer). […] Equilibrium binding constants for ketanserin (Kd) were determined from saturation binding curves using the ‘one-site saturation binding analysis’ method of GraphPad PRISM software (Version 9.2.0). […] Ki values were calculated from the competition displacement data using the competitive binding analysis from GraphPad PRISM software. […] Specific binding in counts per minute (cpm) was calculated by subtracting non-specific binding from total binding. Specific binding (pmol/mg) was calculated from pmol of [^3H]ketanserin bound per mg of protein in the assay. The Kd was calculated by fitting the data with the one-site binding model of PRISM software (version 9.2.0).

5-HT1A receptor = molecular target: T2, 5-HT1A receptor (Homo sapiens, UniProt P08908); assay: cAMP-Glo assay in CHO-K1/5-HT1A/Gα15 (+5-HT1A) and CHO-K1/Gα15 (−5-HT1A) cells; conditions: for luminescence (cAMP) in +5HT1A cell culture at various compound concentrations: 5-HT1A activity: fixed (4 μM) forskolin, +5HT1A cells, FIG. 14B-14D; for relative cAMP levels with increasing compound concentration in +5HT1A and −5HT1A cells: constant (4 μM) forskolin, 5-HT1AR cells vs CHO-K1 cells, n=3, FIG. 14F, 14G
T2 sequence (P08908 1-422): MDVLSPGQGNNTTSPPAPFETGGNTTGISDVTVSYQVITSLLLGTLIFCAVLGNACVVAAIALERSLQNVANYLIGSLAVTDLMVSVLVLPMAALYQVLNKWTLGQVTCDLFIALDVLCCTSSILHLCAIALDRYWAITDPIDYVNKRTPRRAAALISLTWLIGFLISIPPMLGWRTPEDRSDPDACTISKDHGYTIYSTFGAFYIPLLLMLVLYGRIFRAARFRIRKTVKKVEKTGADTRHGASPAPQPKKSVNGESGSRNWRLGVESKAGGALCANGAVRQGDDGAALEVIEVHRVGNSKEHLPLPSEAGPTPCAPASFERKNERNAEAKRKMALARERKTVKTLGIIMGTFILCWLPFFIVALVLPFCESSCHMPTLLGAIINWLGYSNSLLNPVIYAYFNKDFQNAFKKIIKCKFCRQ
Excerpt: CHO-K1/Gα15 (GenScript, M00257) (−5-HT1A) and CHO-K1/5-HT1A/Gα15 (GenScript, M00330) (+5-HT1A) cells lines were used. Briefly, CHO-K1/Gα15 is a control cell line that constitutively expresses Gα15 which is a promiscuous Gq protein. This control cell line lacks any transgene encoding 5-HT1A receptors, but still respond to forskolin; thus, cAMP response to forskolin should be the same regardless of whether or not 5-HT1A agonists are present. Conversely, CHO-K1/5-HT1A/Gα15 cells stably express 5-HT1A receptor in the CHO-K1 host background. […] In contrast, tryptophan is not known to activate 5-HT1A receptors, and was thus used as a negative control. Cells were maintained in complete growth media as recommended by supplier (GenScript) which is constituted as follows: Ham's F12 Nutrient mix (HAM's F12, GIBCO #11765-047) with 10% fetal bovine serum (FBS) (Thermo Scientific #12483020), 200 μg/ml zeocin (Thermo Scientific #R25005) and/or 100 μg/ml hygromycin (Thermo Scientific #10687010). The cells were cultured in a humidified incubator with 37° C. and 5% CO2. Cells maintenance was carried out as recommended by the cell supplier. Briefly, vials with cells were removed from the liquid nitrogen and thawed quickly in 37° C. water bath. Just before the cells were completely thawed the vial's outside was decontaminated by 70% ethanol spray. The cells suspension was then retrieved from the vial and added to warm (37° C.) complete growth media, and centrifuged at 1,000 rpm for 5 minutes. The supernatant was discarded and the cell pellet was then resuspended in another 10 ml of complete growth media, and added to the 10 cm cell culture dish (Greiner Bio-One #664160). The media was changed every third day until the cells were about 90% confluent. The ˜90% confluent cells were then split 10:1 for maintenance or used for experiment. As 5-HT1AR activation inhibits cAMP formation, the agonist activity of test molecules on 5-HT1AR was measured via the reduction in the levels of cAMP produced due to application of 4 μM forskolin. The change in intracellular cAMP levels due to the treatment of novel molecules was measured using cAMP-Glo Assay kit (Promega #V1501). Briefly, +5-HT1A cells were seeded on 1-6 columns and base −5-HT1A cells were seeded on columns 7-12 of the white walled clear bottom 96-well plate (Corning, #3903). Both cells were seeded at the density of 30,000 cells/well in 100 μl complete growth media and cultured 24 hrs in humidified incubator at 37° C. and 5% CO2. On the experiment day, the media of cells was replaced with serum/antibiotic free culture media. Then the cells were treated for 20 minutes with test molecules dissolved in induction medium (serum/antibiotic free culture media containing 4 μM forskolin, 500 μM IBMX (isobutyl-1-methylxanthine, Sigma-Aldrich, Cat. #17018) and 100 μM (RO 20-1724, Sigma-Aldrich, Cat. #B8279)). Forskolin induced cAMP formation whereas IBMX and RO 20-1724 inhibited the degradation of cAMP. PKA was added to the lysate, mixed, and subsequently the substrate of the PKA was added. PKA was activated by cAMP, and the amount of ATP consumed due to PKA phosphorylation directly corresponded to cAMP levels in the lysate. Reduced ATP caused reduced conversion of luciferin to oxyluciferin, conferring diminished luminescence as the result of 5-HT1A activation.

T1 sequence (P28223 whole entry): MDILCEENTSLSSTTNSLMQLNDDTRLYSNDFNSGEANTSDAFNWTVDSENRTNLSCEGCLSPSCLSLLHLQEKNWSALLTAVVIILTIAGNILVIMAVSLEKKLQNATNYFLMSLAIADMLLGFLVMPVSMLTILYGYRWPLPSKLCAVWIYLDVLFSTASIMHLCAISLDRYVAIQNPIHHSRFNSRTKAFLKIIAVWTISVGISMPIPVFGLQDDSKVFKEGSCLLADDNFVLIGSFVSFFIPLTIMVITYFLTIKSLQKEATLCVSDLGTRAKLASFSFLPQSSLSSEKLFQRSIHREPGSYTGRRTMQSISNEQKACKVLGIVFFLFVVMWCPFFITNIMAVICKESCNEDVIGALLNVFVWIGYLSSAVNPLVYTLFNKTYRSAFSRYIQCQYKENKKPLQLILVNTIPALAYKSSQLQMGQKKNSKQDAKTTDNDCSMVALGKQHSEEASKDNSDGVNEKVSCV

Structure (SMILES)	competition binding curve against [3H]ketanserin at the 5-HT2A receptor (5-HT2A receptor)	luminescence (cAMP) in +5HT1A cell culture at various compound concentrations: 5-HT1A activity (5-HT1A receptor)	relative cAMP levels with increasing compound concentration in +5HT1A and −5HT1A cells (5-HT1A receptor)
CN(C)CCc1c[nH]c2cccc(O)c12 [psilocin]	binding	–	–
N[C@@H](Cc1c[nH]c2ccccc12)C(=O)O [tryptophan]	no binding	lack of 5-HT1A activity	–
CN(C)CCc1c[nH]c2ccccc12 [DMT]	–	5-HT1A activity	–
NCCc1c[nH]c2ccc(O)cc12 [serotonin]	–	–	agonist of 5HT1A
CC(=O)NCCc1c[nH]c2c(C)cc(C#N)cc12 [compound (VIII), N-[2-(5-cyano-7-methyl-1H-indol-3-yl)ethyl]acetamide]	–	5-HT1A activity	agonist of 5HT1A
